Test results reported in patent publication US20240018501A1, “HIGHER PERFORMANCE PROTEASES FOR SCARLESS PEPTIDE TAG REMOVAL” (priority 2017, published 2024).
Ends that are not written are not given here. * marks the point of attachment. Butanoyl(2-oxo) = CCC(=O)C(=O)*; Pyruvoyl = CC(=O)C(=O)*

Columns and labels:
His6-ElxO = His6-ElxO activity assay (NADPH absorbance at 340 nm, LC-MS); assay type: biochemical, Staphylococcus epidermidis 15X154; conditions: LC-MS analysis
Experimental: Wild type or mutant His6-ElxO (2 or 10 μM) and purified peptide (0.1 to 5 mM) were incubated with NADPH (2.5 mM) in assay buffer (100 mM HEPES, 500 mM NaCl, pH 7.5) at 25° C. Reaction progress was monitored by UV spectrophotometry to measure initial rates, measuring the disappearance of NADPH absorbance at 340 nm. […] The mobile phase was 0.1% (v/v) formic acid in water (A) and methanol (B). A gradient of 0-70% (v/v) B in A over 30 minutes and a flow rate of 0.5 mL min^−1 were used.
Synthetic lactocin S (50 μM), obtained from Prof. J. Vederas (University of Alberta), was incubated with His6-ElxO (50 μM) and NADPH (10 mM) in assay buffer (100 mM HEPES, 500 mM NaCl, pH 7.5) at room temperature for 12 h. […] A gradient of 3-97% (v/v) B (0.10% (v/v) formic acid in methanol) in A (0.1% (v/v) formic acid in water) over 12 min was used.

[1] = system: Pediococcus acidilactici Pac1.0; test: Agar diffusion bioactivity assay; assay type: cell-based; conditions: for activity against P. acidilactici Pac1.0: agar diffusion
Experimental: (§1) Agar diffusion bioactivity assays were performed using de Man-Rogosa-Sharpe (MRS) agar media. For each assay, aliquots of agar medium inoculated with overnight cultures of indicator strain (1/100 dilution) were poured into sterile plates. Aliquots of 20 μL of sample were placed into wells made on the solidified agar and the plates were incubated at 37° C. overnight. For determination of critical concentration, the diameter of the inhibition zones were determined and fitted to the equation D=a+b×(C), where D is the diameter of the inhibition zone, C is the concentration of bacteriocin, and a and b are constant parameters. For MIC determinations, serial dilutions of peptides were prepared in MRS broth and aliquots of 50 μL were dissolved in 150 μL of a 1 to 50 dilution of an overnight culture of indicator strain in fresh MRS broth on 96-well plates. The cultures were incubated at 37° C. overnight and the wells with no bacterial growth (OD600<0.3) were determined.

L. sake L45 = test: Agar diffusion bioactivity assay, lactocin S producer strain; assay type: cell-based, Lactobacillus sake
Experimental: as §1

CylA = CylA self-cleavage (SDS-PAGE, MALDI-TOF MS); assay type: biochemical, Enterococcus faecalis
Experimental: E. coli BL21 (DE3) cells were transformed with pRSFDuet-1/CylA-27-412, pRSFDuet-1/CylA-27-412-E95A, pRSFDuet-1/CylA-27-412-S359A or pRSFDuet-1/LicP-25-433 vectors and plated on an LB plate containing 50 mg/L kanamycin. A single colony was picked and grown in 20 mL of LB with kanamycin at 37° C. for 12 h and the resulting culture was inoculated into 2 L of LB. Cells were cultured at 37° C. until the OD at 600 nm reached 0.5, cooled and IPTG was added to a final concentration of 0.1 mM. The cells were cultured at 18° C. for another 10 h before harvesting. The cell pellet was resuspended on ice in LanP start buffer (20 mM HEPES, 1 M NaCl, pH 7.5 at 25° C.) and lysed by homogenization. The lysed sample was centrifuged at 23,700×g for 30 min and the pellet was discarded. The supernatant was passed through 0.45-μm syringe filters and the protein was purified by immobilized metal affinity chromatography (IMAC) loaded with nickel as described in B. Li et al. Methods Enzymol. 2009, 458, 533. […] Protein concentration was quantified by its absorbance at 280 nm. The extinction coefficient for His6-CylA-27-412, His6-CylA-27-412-E95A and His6-CylA-27-412-S359A was calculated as 30,830 M^−1 cm^−1. The extinction coefficient for His6-LicP-25-433 was calculated as 46,300 M^−1 cm^−1. […]

modified CylLS [2] = test: Kinetic analysis of full length CylA and CylA-96-412 against modified CylLS (LC/MS); assay type: biochemical, Enterococcus faecalis
Experimental: Targeted peptides were dissolved in H2O to a final concentration of 3 mg/mL. To a 85 μL solution of peptides, 10 μL of 500 mM HEPES buffer (pH 7.5) was added followed by 5 μL of 0.5 mg/mL AspN protease (for modified CylLL and CylLS peptides), 0.1 mg/mL CylA protease (for modified and unmodified CylLL, CylLS peptides, and modified HalA2-GDVQAE peptide) or 0.1 mg/mL LicP protease (for LicA2). For cleavage tests of the engineered GDVQAE peptides, CylA was added to a final concentration of 0.01 mg/mL, whereas the peptide was added to a concentration of 0.3 mg/mL with 50 mM HEPES buffer (pH 7.5). The protease cleavage reaction mixtures were kept at 25° C. for 1 to 48 h. Osmotic pressure was adjusted with NaCl solution with a final concentration of 150 mM. The digested peptide mixture was directly used for antimicrobial and hemolytic assay. For the kinetic analysis of CylA and its mutant proteins, His6-CylA-27-412 and His6-CylA-27-412-E95A proteins were added to a final concentration of 500 ng/mL and 2.5 μg/mL (22 nM and 110 nM), respectively, with modified CylLS supplied at a concentration of 0.3 mg/mL (36 μM). The reactions were allowed to proceed at room temperature and were stopped by 1% TFA at different time points for LC/MS analysis. Halα and Halβ were obtained by factor Xa cleavage of modified HalA1Xa and HalA2 Xa peptides using the procedure of Y. Shi, et al. J. Am. Chem. Soc. 2011, 133, 2338. CylLL″ and CylLS″ were prepared in the same way using modified CylLL-E-1K and CylLS-E-1K peptides as described in W. Tang and W. A. van der Donk, Nat. Chem. Biol. 2013, 9, 157.
As full length CylA is not available due to its self-cleavage, His6-CylA-27-412-E95A was chosen to serve as a substituent of full length CylA as the self-cleavage was abolished whereas the conserved catalytic C-terminal region of CylA remained unchanged. To obtain the mature protease CylA-96-412, His6-CylA-27-412 was aged at 4° C. for 12 hours to allow the self-cleavage to proceed until CylA-96-412 was the dominant peak monitored by MALDI-TOF MS. The aged protein mixture was directly used as a substituent of CylA-96-412. To test the proteases' activities, CylA-96-412 and His6-CylA-27-412-E95A were supplied with a final concentration of 22 nM and 110 nM, respectively, with modified CylLS served at a concentration of 36 μM. The reactions were stopped at 3 minute, 6 minute, 12 minute and 24 minute by 1% TFA and the formation of mature CylLS″ was monitored by liquid chromatography MS (LC/MS). […] The production of core peptide was analyzed by extracted ion chromatography monitoring the desired product mass 1017 (M+2H^+).

[3] = Storage and freeze-thaw stability of the proteases; assay type: physicochemical
modified CylLS [4] = biological target: modified CylLS
[5] = serial dilution agar diffusion, versus control samples containing native lactocin S

Glx-AAIVK
reduction by His6-ElxO in the presence of NADPH (His6-ElxO): no significant formation of the reduced peptide

OBu-AAAVK ({Butanoyl(2-oxo)}-AAAVK)
reduction by His6-ElxO in the presence of NADPH (His6-ElxO): substrates for the enzyme

OBu-AAIAK
reduction by His6-ElxO in the presence of NADPH (His6-ElxO): substrates for the enzyme

OBu-AGPAIR ({Butanoyl(2-oxo)}-AGPAIR) [resembles the N-terminus of Pep5]
reduction by His6-ElxO in the presence of NADPH (His6-ElxO): reduced

Obu-AAIVK
reduction by His6-ElxO in the presence of NADPH (His6-ElxO): accepted as substrates

Obu-RAIVK
reduction by His6-ElxO in the presence of NADPH (His6-ElxO): accepted as substrates

Pyr-AAI (Pyruvoyl-Ala-Ala-Ile)
reduction by His6-ElxO in the presence of NADPH (His6-ElxO): reduced

Pyr-AAIV (Pyruvoyl-AAIV)
reduction by His6-ElxO in the presence of NADPH (His6-ElxO): reduced

Pyr-AAVLK
reduction by His6-ElxO in the presence of NADPH (His6-ElxO): reduced

Pyr-APVLA (Pyruvoyl-APVLA) [resembles the N-terminus of lactocin S]
reduction by His6-ElxO in the presence of NADPH (His6-ElxO): reduced

Pyr-BPVLAAVAVAKKK
reduction by His6-ElxO in the presence of NADPH (His6-ElxO): reduced

Pyr-LGPAIK (Pyruvoyl-LGPAIK) [mimics the N-terminal portion of dehydroepicidin 280]
reduction by His6-ElxO in the presence of NADPH (His6-ElxO): reduced

dihydrolactocin S
activity against P. acidilactici Pac1.0 [1]: active | critical concentrations (no inhibition zone) [1, 5]: smaller | inhibition zones [1, 5]: slightly larger | activity against L. sake L45 (L. sake L45): not against L. sake L45

lactocin S [reference compound]
reduction by His6-ElxO in the presence of NADPH (His6-ElxO): confirming the formation of dihydrolactocin S | activity against P. acidilactici Pac1.0 [1]: active | activity against L. sake L45 (L. sake L45): not against L. sake L45

B1: His6-CylA-27-412: CylA without secretion signal residues 1-26, N-terminal hexa-histidine tag, SEQ ID NO: 10 (protein)
chain: MGSSHHHHHHSQDPNSLSNNISFFIDNSQTTAIEEIESELSSEKVDYIQEIGLVSFKNLDDSDRKFIGKYFNVSEGKKLPDFKPEEVNSSILNINILNKDFKSFNWPYKKILSHIDPVKEQLGKDITIALIDSGIDRLHPNLQDNNLRLKNYVNDIELDEYGHGTQVAGVIDTIAPRVNLNSYKVMDGTDGNSINMLKAIVDATNDQVDIINVSLGSYKNMEIDDERFTVEAFRKVVNYARKNNILIVASAGNESRDISTGNEKHIPGGLESVITVGATKKSGDIADYSNYGSNVSIYGPAGGYGDNYKITGQIDAREMMMTYYPTSLVSPLGKAADFPDGYTLSFGTSLATPEVSAALAAIMSKNVDNSKDSNEVLNTLFENADSFIDKNSMLKYKEVRIK
modifications: N-terminal His6 tag; … PEPTIDE SEQUENCE FOR CylA with His6-tag, without the secretion signal peptide.
CylA self-cleavage during expression or purification (CylA): cleavage event after residue Glu95

B2: CylA: class II LanP subtilisin-like serine protease of enterococcal cytolysin biosynthesis, SEQ ID NO: 9 (protein)
chain: MKKRGLTYILISYIFLILGTTGYASDLSNNISFFIDNSQTTAIEEIESELSSEKVDYIQEIGLVSFKNLDDSDRKFIGKYFNVSEGKKLPDFKPEEVNSSILNINILNKDFKSFNWPYKKILSHIDPVKEQLGKDITIALIDSGIDRLHPNLQDNNLRLKNYVNDIELDEYGHGTQVAGVIDTIAPRVNLNSYKVMDGTDGNSINMLKAIVDATNDQVDIINVSLGSYKNMEIDDERFTVEAFRKVVNYARKNNILIVASAGNESRDISTGNEKHIPGGLESVITVGATKKSGDIADYSNYGSNVSIYGPAGGYGDNYKITGQIDAREMMMTYYPTSLVSPLGKAADFPDGYTLSFGTSLATPEVSAALAAIMSKNVDNSKDSNEVLNTLFENADSFIDKNSMLKYKEVRIK
modifications: … PEPTIDE SEQUENCE FOR FULL LENGTH CylA
turnover rate (modified CylLS [2]): 20 min⁻¹ | activity after multiple rounds of freeze-thaw [3]: no obvious decrease of activity | stability on storage ([3]; −20° C): stable

B3: CylA-96-412 (protein)
chain: EVNSSILNINILNKDFKSFNWPYKKILSHIDPVKEQLGKDITIALIDSGIDRLHPNLQDNNLRLKNYVNDIELDEYGHGTQVAGVIDTIAPRVNLNSYKVMDGTDGNSINMLKAIVDATNDQVDIINVSLGSYKNMEIDDERFTVEAFRKVVNYARKNNILIVASAGNESRDISTGNEKHIPGGLESVITVGATKKSGDIADYSNYGSNVSIYGPAGGYGDNYKITGQIDAREMMMTYYPTSLVSPLGKAADFPDGYTLSFGTSLATPEVSAALAAIMSKNVDNSKDSNEVLNTLFENADSFIDKNSMLKYKEVRIK
rate of proteolysis, formation of CylLS″ by LC/MS (22 nM enzyme, 36 µM substrate) (modified CylLS [4]): CylA-96-412 catalyzed the proteolysis of 20 substrate peptides per minute | rate of proteolysis of modified CylLS (modified CylLS [2]; enzyme 22 nM, modified CylLS 36 μM, room temperature, LC/MS): 20 substrate peptides per minute
